This note sets out measurements from patent US20070082858A1, “Methods and compositions for the prevention of toxic side effects of aminoglycoside medications” (priority 2004, published 2007).

Series [1] concerns bullfrog saccular hair cells. In words: In vivo GTTR uptake in bullfrog saccule after lymph sac injection. As for the experimental part:
(§1) Gentamicin sulfate was conjugated to Texas Red (Molecular Probes) using published methods (1) to produce a 300:1 molar dilution of gentamicin-Texas Red conjugate (GTTR). Mice were injected sub-cutaneously with a single 300 mg/kg dose of GTTR. Frogs were injected directly into the lymph sac (there is no sub-cutaneous space in frogs, lymph sacs drain directly into the blood). Control animals received an equivalent dose of hydrolyzed Texas Red succinimidyl esters only.
At specific time-points (0.5, 1, 2, 3, 6, 7.5, 9 and 24 hours) following injection, animals were anesthetized and inner ear organs were excised and fixed in 4% formaldehyde overnight. After washing in PBS, frog and murine organs were permeabilized using ice-cold acetone, and all organs were labeled with Alexa-488-conjugated, or FITC-conjugated phalloidin to localize filamentous actin. Mouse and frog inner ear epithelia were whole-mounted and observed using a Bio-Rad MRC 1024 ES laser scanning confocal system attached to a Nikon Eclipse TE300 inverted microscope. Alexa-488 and Texas Red images were collected sequentially using 1024×1024 pixel box size using a 4× (n.a. 0.25) and a 60× lens (n.a. 1.4) with an xy resolution=230 nm and xz resolution=440 nm. All control organs were imaged at the same laser intensity and gain settings as treated organs.

The next series relates to cochlear hair cells. In words: In vivo GTTR uptake in mouse cochlea after sub-cutaneous injection. Also noted: species or system mice. The procedure:
as §1
At specific time-points (0.5, 1, 2, 3, 6, 7.5, 9 and 24 hours) following injection, animals were anesthetized and inner ear organs were excised and fixed in 4% formaldehyde overnight. After washing in PBS, frog and murine organs were permeabilized using ice-cold acetone, and all organs were labeled with Alexa-488-conjugated, or FITC-conjugated phalloidin to localize filamentous actin. […]
For data analysis of murine samples, area intensity measurements of optically-sectioned hair cells (approximately 1-2 microns below the cuticular plate) were obtained from apical and basal cochlear regions (25 hair cells per row in each region). The mean basal intensity was divided by the mean apical intensity of an equivalent number of hair cells to derive a ratio that indicates the relative degree of fluorescence in basal hair cells compared to apical hair cells. […]

Series [2] is described as follows: PIP2 quenching of GTTR and TR fluorescence (fixed cells and 3-d scanning fluorescence spectroscopy). The settings on record: 1 mg/ml PIP2 for 1.5 hour, imaged in PIP2 solution; recovered after delipidation. As for the experimental part: PIP2: Monolayer MDCK cells were grown in coverglass chambers as described above. After fixation, delipidation, washing and imaging (FIG. 27B), cells were treated with 1 mg/mL phosphatidylinositol-4,5-bisphosphate (PIP2, Echelon Biosciences, Salt Lake City, Utah) for 1.5 hours and re-imaged (FIG. 27E), prior to a second delipidation with 0.5% Triton, washing and imaging again (FIG. 27F).
Spectrophotometry: 3-d scanning fluorescence spectroscopy of solutions containing TR or GTTR with or without (PIP2) were performed using a Safire fluorescence microplate reader (Tecan, Research Triangle Park, N.C.). GTTR (100 μg/mL; weight as gentamicin in molecule) and PIP2 (155 μg/mL; approximately equimolar) were mixed vigorously in PBS solution and allowed to stand at room temperature for ½ hour prior to scanning. This was compared to the same concentration of GTTR alone in solution. Similar hydrolyzed Texas Red solutions (at the same concentration as the Texas Red moiety in GTTR solutions), with or without PIP2, were used as controls. Excitation and emission spectra were obtained over an excitation range of 570-604 nm (bandwidth 5 nm) and an emission range of 610-650 nm (bandwidth 5 nm).

For the next series, the system named is MDCK cells. In words: GTTR uptake into MDCK cells under TRPV1 agonists/antagonists, cation channel blockers, cations and pH (30-60 seconds, 20° C., FATX fixation, confocal imaging). The settings on record: 75 μg/ml PIP2 added to 1 μg/ml GTTR in PBS, 1 minute. From the text: MDCK cells were used as a model system to test regulation of GTTR uptake by conditions known to produce or modify a cation current through the TRPV1 channel. Conditions tested were varying extracellular calcium concentrations, pH, specific agonists, specific antagonists, and the non-specific cation channel blocker Ruthenium Red. In addition, we pre-mixed PIP2 with GTTR to determine whether that anionic phospholipid, known to bind gentamicin, would alter GTTR uptake. All these assays were done at room temperature (20° C.), for 30 or 60 seconds, and using doses of GTTR of 5 to 10 μg/ml, which are far below the typical therapeutic level of <300 μg/ml. Buffers used for treatment were as described for each experiment. Cells were quickly washed to replace culture medium with treatment buffer, treated as indicated, washed again after treatment, fixed immediately with 4% formaldehyde and 0.5% Triton X-100 (FATX), and washed prior to imaging.
Methods: Cells were seeded into 8-well coverglass chambers at 3000 cells/well and grown for 5 days.
Cells were washed three times with the buffer to be used in the particular experiment, treated with GTTR and experimental variable for 30 or 60 seconds at 20° C., precluding endocytosis. Following treatment, cells were rinsed three times with buffer, then fixed and delipidated with 4% formaldehyde plus 0.5% Triton X-100 (FATX) for 45 minutes. Following fixation, cells were rinsed with PBS (Invitrogen, CA) for at least 4-6 times, or until foaming in the suction pipette ceased. In contrast to previous experiments, no FBS was present in the treatment media, allowing for more rapid uptake of the antibiotic-based GTTR.
MDCK cells were washed with Hank's buffered salt solution (HBSS; Invitrogen, CA), then placed into buffers of varying potassium concentrations. HBSS was mixed with equi-osmolar KCl/HBSS to produce the required K^+ concentrations. Cells were treated with 1 μg/mL GTTR for 1 minute, then washed and fixed as described above.
Cells were washed with PBS (Invitrogen, CA), then placed into buffers containing varying concentrations of calcium, obtained by mixing HBSS with equimolar CaCl2, each at pH 7.3. Cells were treated with 5 μg/mL of GTTR for 30 seconds, then washed and fixed as above.
Cells were washed with saline, then treated with 5 μg/mL of GTTR in saline buffers of varying pH for 30 seconds, then washed and fixed as above. Sodium hydroxide and hydrochloric acid were used to alter pH. These experiments were performed in three different saline buffers: (i) PBS (no calcium), (ii) a mixture of […] for a final calcium concentration of 0.32 mM, and (iii) a mixture of three parts PBS to one part HBSS for a final calcium concentration of 0.97 mM.
Cells were washed three times with Ca^++-free saline (0.9% NaCl), then treated with 5 μg/mL GTTR and one of the following for 30 seconds: TRPV1 agonists (resiniferatoxin [RTX]; or anandamide [AND]; Alexis Biochemicals, San Diego, Calif.); or antagonists (iodo-RTX, or SB 366791; Tocris, Ellisville, Mo.). Cells were then washed in saline and fixed as above.
Cells were washed three times with Ca^++-free 0.9% NaCl, then treated with 5 μg/mL GTTR and one of the following for 30 seconds: 100 μM Ruthenium Red, 100 μM Ruthenium Red plus one of the TRPV1 agonists or antagonists described above; or lanthanum (La^+++) at 0.5 or 5 mM.

With `O=S(=O)([O-])c1cc(S(=O)(=O)O)ccc1C1=c2cc3c4c(c2Oc2c1cc1c5c2CCCN5CCC1)CCC[N+]=4CCC3` [hydrolyzed TR, Texas Red], the “fluorescence in inner ear epithelia” value (in series [1]; in the series on cochlear hair cells) was “negligible fluorescence in their inner ear epithelia at all time points” throughout.
In the case of “phosphatidylinositol-4,5-bisphosphate [PIP2]”, in series [2], the “GTTR fluorescence in FATX-fixed MDCK cells” value is given as “clearly quenched the GTTR fluorescence”. The GTTR uptake result with MDCK cells is recorded as “large reduction in GTTR uptake”.
